Structures are written as SMILES. Bounds are passed on as bounds.

Experiment [1] has as its system T47D cells. The experiment in a line: Cellular growth inhibition assay for T47D cells, CellTiter-Glo. Type of experiment: cell-based, human. To be noted: Homo sapiens, T47D, 72 h, 72 hours treatment, CellTiter-Glo 2.0 cell viability. A digest of the protocol: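 Luminescence from CellTiter-Glo 2.0 after 72 h of compound exposure gives the viability signal. Cells grew in insulin-supplemented (0.2 units/mL) DMEM with 10% FBS and were treated one day after seeding at 0.5% DMSO. GI50 values come from four-parameter nonlinear regression.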
(In general: In ATP-based viability assays light output follows the ATP content of the culture.)

Experiment [2] concerns T-Rex 293 cell line SC3 cells having increased expression of androgen receptor protein due to exposure to doxycycline. The experiment in a line: Cellular growth inhibition, T-Rex 293 SC3 cells with doxycycline (androgen receptor induced), CellTiter-Glo. Type of experiment: cell-based. To be noted: 72 h, T-Rex 293 SC3 cells with 10 ng/mL doxycycline (increased androgen receptor expression). In outline: (§1)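 SC3 is a T-Rex 293 clone stably transfected with wild-type androgen receptor in pcDNA4/TO, inducible by 10 ng/mL doxycycline. Cells were grown in phenol red-free DMEM with 10% charcoal-dextran FBS, with or without doxycycline, dosed 24 h after seeding (0.5% DMSO) for 72 h. Viability was read by CellTiter-Glo 2.0 luminescence and GI50 obtained from four-parameter fits.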

Experiment [3] relates to T-Rex 293 cell line SC3 cells lacking increased expression of androgen receptor protein. The experiment is described as follows: Cellular growth inhibition, T-Rex 293 SC3 cells without doxycycline, CellTiter-Glo. Type of experiment: cell-based. The conditions noted are these: 72 h, T-Rex 293 SC3 cells not exposed to doxycycline, CellTiter-Glo 2.0. In outline:
as §1

For experiment [4], the system named is VCaP cells. The experiment in a line: Cellular growth inhibition assay for VCaP cells, CellTiter-Glo. In kind it is cell-based, human. The conditions noted are these: Homo sapiens, VCaP, 72 h, 72 hours treatment, CellTiter-Glo 2.0. A digest of the protocol: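 GI50 values come from four-parameter curve fits of luminescence data normalized to a zero baseline. Compound, in medium with 0.5% DMSO, was added one day after plating and left for 72 h before CellTiter-Glo 2.0 addition.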

As a reminder, the GI50 is the concentration giving 50% growth inhibition. Low values mean more potent growth inhibition, high ones less potent growth inhibition. As for `Cc1sc2c(c1C)C(c1ccc(OC3CC4(CCN(c5ncc(C(=O)N[C@H]6C(C)(C)[C@H](Oc7ccc(C#N)c(Cl)c7)C6(C)C)cn5)CC4)C3)cc1)=N[C@@H](CC(C)(C)O)c1nnc(C)n1-2` [Compound I-280], the GI50 in experiment [1] was over 3000 nM; in experiment [2] it was under 500 nM; in experiment [3], over 3000 nM; in experiment [4] it was under 500 nM.
`Cc1sc2c(c1C)C(c1ccc(O[C@H]3C[C@@H](N(C(C)C)C4CCN(c5ncc(C(=O)N[C@H]6C(C)(C)[C@H](Oc7ccc(C#N)c(Cl)c7)C6(C)C)cn5)CC4)C3)cc1)=N[C@@H](Cc1ncco1)c1nnc(C)n1-2` [Compound I-281]: the 50% growth inhibitory concentration (GI50) is under 500 nM in experiment [1], under 500 nM in experiment [2], 500 to 1500 nM in experiment [3] and under 500 nM in experiment [4].
On to `Cc1sc2c(c1C)C(c1ccc(OC3CC4(C3)C[C@H](C)N(c3ncc(C(=O)N[C@H]5C(C)(C)[C@H](Oc6ccc(C#N)c(Cl)c6)C5(C)C)cn3)[C@@H](C)C4)cc1)=N[C@@H](Cc1ncco1)c1nnc(C)n1-2` (stereo partly shown) [Compound I-282], for which the GI50 in experiment [1] is under 500 nM; in experiment [2], under 500 nM; in experiment [3] it was over 3000 nM; in experiment [4], over 3000 nM.
`Cc1sc2c(c1C)C(c1ccc(CCCN3CC4(C3)CN(c3ncc(C(=O)N[C@H]5C(C)(C)[C@H](Oc6ccc(C#N)c(Cl)c6)C5(C)C)cn3)C4)cc1)=N[C@@H](Cc1ncco1)c1nnc(C)n1-2` [Compound I-284]: the GI50 in experiment [1] was under 500 nM; in experiment [2] it was under 500 nM; in experiment [3] it was 500 to 1500 nM; in experiment [4] it was under 500 nM.
Consider `Cc1sc2c(c1C)C(c1ccc(C(=O)N3CCN(C(=O)c4ncc(C(=O)N[C@H]5C(C)(C)[C@H](Oc6ccc(C#N)c(Cl)c6)C5(C)C)cn4)CC3)cc1)=N[C@@H](Cc1ncco1)c1nnc(C)n1-2` [Compound I-285], for which the 50% growth inhibitory concentration (GI50) in experiment [1], in experiment [2], in experiment [3] and in experiment [4] was over 3000 nM throughout.
Regarding `Cc1sc2c(c1C)C(c1ccc(C(=O)N3CCN(C(=O)c4ncc(C(=O)N[C@H]5C(C)(C)[C@H](Oc6ccc(C#N)c(Cl)c6)C5(C)C)cn4)CC3)cc1)=N[C@H](Cc1ncco1)c1nnc(C)n1-2` [Compound I-286], the GI50 in experiment [1] is over 3000 nM; in experiment [2], 500 to 1500 nM; in experiment [3] it was over 3000 nM; in experiment [4], over 3000 nM.
Consider `Cc1sc2c(c1C)C(c1ccc(CCC(=O)N3CCN(c4ncc(C(=O)N[C@H]5C(C)(C)[C@H](Oc6ccc(C#N)c(Cl)c6)C5(C)C)cn4)CC3)cc1)=N[C@@H](Cc1ncco1)c1nnc(C)n1-2` [Compound I-287], for which the GI50 in experiment [1], in experiment [2], in experiment [3] and in experiment [4] was under 500 nM in each case.
As to `Cc1sc2c(c1C)C(c1ccc(C(=O)N3CCC(Cc4ncc(C(=O)N[C@H]5C(C)(C)[C@H](Oc6ccc(C#N)c(Cl)c6)C5(C)C)cn4)CC3)cc1)=N[C@@H](Cc1ncco1)c1nnc(C)n1-2` [Compound I-288], the GI50 in experiment [1], in experiment [2], in experiment [3] and in experiment [4] was over 3000 nM each time.
Turning to `Cc1sc2c(c1C)C(c1ccc(C(=O)N3CCC(Cc4ncc(C(=O)N[C@H]5C(C)(C)[C@H](Oc6ccc(C#N)c(Cl)c6)C5(C)C)cn4)CC3)cc1)=N[C@H](Cc1ncco1)c1nnc(C)n1-2` [Compound I-289], the 50% growth inhibitory concentration (GI50) in experiment [1] is over 3000 nM; in experiment [2] it was under 500 nM; in experiment [3] it was over 3000 nM; in experiment [4] it was 500 to 1500 nM.
For the compound `Cc1sc2c(c1C)C(c1ccc(CN3CCN(C(=O)c4ncc(C(=O)N[C@H]5C(C)(C)[C@H](Oc6ccc(C#N)c(Cl)c6)C5(C)C)cn4)CC3)cc1)=N[C@@H](Cc1ncco1)c1nnc(C)n1-2` [Compound I-290], the 50% growth inhibitory concentration (GI50) was 1500 to 3000 nM in experiment [1], under 500 nM in experiment [2], 500 to 1500 nM in experiment [3] and under 500 nM in experiment [4].

The record behind these values is patent US20260062422A1 (Halda Therapeutics OpCo, Inc., priority 2022, published 2026).
